“And” between values parts separate entries of the source, which are not always exact repeats. Identical values can stand only once.
Assays:
type 2 diabetic patients = experiment: Well-being of type 2 diabetic patients after treatment (Example 4); format: in vivo, human; details: type 2 diabetes patients
Description: Five male type 2 diabetic patients took part in the study. They were all very difficult to regulate. When the study started, the average HbA1c was to be approximately 9.0%. The patients had no other clinical problems. In addition, the IgF-BP3/IgF-1 ratio had to be over 10. The age of the subjects were between 45 years and 75 years with an average of 58. The period of the investigation was 6 months. At the start of the study, after 2 month, 4 months and at the end at 6 months, blood was taken. The following parameters were checked: IGF-1 and IGF-PB-3. Also, at the start, safety parameters (liver tests, hematology) were determined. Every 8 weeks, HbA1c was determined.

IGF-1 [1] = experiment: IgF-1 level in athletes with intensive training taking IAA or placebo (Example 6); format: in vivo, human; details: group A
Procedure: Twenty athletes entered the study. Other medication was excluded from the research. The period of the treatment was 12 weeks. They were not allowed to take any other medication or food supplements. They continued their level of training. After 2 weeks, the training was intensified by 25%. At baseline, at the start, after 2 weeks, 4 weeks, 6 weeks, 8 weeks, 10 weeks and 12 weeks, IGF-1 and safety parameters (liver tests, hematology) were determined. The group was divided into two groups of ten athletes. Group A received IAA; group B got a placebo.
All samples from one subject were analyzed in the same run to avoid intra-assay variability. GH was assayed with a chemiluminescence kit (Nichols Institute Diagnostics, San Juan Capistrano, Calif., USA). Quantification of IGF-1 was performed using an immunoradiometric assay (IRMA) (DSL-5600 ACTIVE, DSL, Germany GmbH, Germany). Intra- and inter-assay variance was: 4.0% and 9.2% for GH; 3.0% and 1.5% for IGF-1.
The total work output of every subject was calculated with a two-way ANOVA for repeated measures and the hormone values were analyzed with the Wilcoxon test. In all cases, 1 p value of <0.05 was accepted as significant.
The following schedule was used for the supplements. 1 IAA capsule contained 10 mg IAA, 100 mg NaCl, 140 mg WPC 70. One Glutamine capsule contained 500 mg glutamine. The amino acids that were taken are as described in Table 1.

IGF-1 [2] = experiment: IGF-1 levels in poor-growing piglets treated with IAA (Example 7); format: in vivo, piglets (Dutch Landrace)
Description: The trial was done in a well-managed farm with 1000 sows of the Dutch Landrace. Although the farm is well run, the technical performance is not optimal. There were latent problems with mortality and with growth rates of the piglets. There are too many poor-growing piglets, without fully understanding the technical or veterinary reason. There is no clear pathology to be seen on the farm.
The farmer selected the poor-growing piglets for this weaning period. The piglets were weaned for two days at the start of the trial. There were three groups: the normal well-growing piglets, which served as a control group; the B group with 78 poor growers that are treated with 12.5 mg/kg/LW (Life Weight) IAA; and the X group with 52 poor growers that are not treated.
Blood samples for IGF-1 measuring were taken from each group at the beginning of the trial and at the end of the trial. Two pens (13 piglets) of the B and X groups were weighed at the beginning and at the end of the trial. The active ingredient IAA was mixed in dextrose. […] The B group received the treatment five days after the first IGF-1 measuring.

growing laying hens = experiment: Weight and weight gain of growing laying hens treated with IAA (Example 8); format: in vivo; parameters: unit not given here
Procedure: Growing laying hens of 10 weeks old were selected in the flock to create four groups of ten hens: • Group GB: Ten normally growing hens, not treated • Group GNA: Ten normally growing hens, treated with 10 mg/kg/LW IAA (LW=live weight) • Group SB: Ten poorly growing hens, not treated • Group SNA: 10 poorly growing hens, treated with 10 mg/kg/LW IAA.
In this example, not only the poor-growing birds were treated, but also normally growing animals. The birds receive daily forced oral treatment with a capsule that contains IAA. The different groups are weighed every week. Treatment is continued at least until the hens start laying, to see if the period of onset of laying is influenced by the treatment.

## indole acetic acid [IAA]
Type 2 diabetic patients
  how the patients felt after the treatment: felt better
IGF-1 [1]; over a period of 8 weeks (so in the source), statistically significant
  increase of IgF-1 level: ca. 47.7%
IGF-1 [1]; time point 0 (start), blood taken every 2 weeks over 12 weeks
  IgF-1 level, average test group: 27.9 nmol/L
IGF-1 [1]; time point 1
  IgF-1 level, average test group: 35.8 nmol/L
IGF-1 [1]; time point 2
  IgF-1 level, average test group: 38.9 nmol/L
IGF-1 [1]; time point 3
  IgF-1 level, average test group: 42.5 nmol/L
IGF-1 [1]; time point 4
  IgF-1 level, average test group: 41.7 nmol/L
IGF-1 [1]; time point 5
  IgF-1 level, average test group: 41.4 nmol/L
IGF-1 [1]; time point 6 (end of the study)
  IgF-1 level, average test group: 41.2 nmol/L
IGF-1 [2]; treated group B, individual piglets, after 21 days of 12.5 mg/kg/LW IAA in feed, acetic acid, 12.5 mg/kg
  IGF-1 level, 2nd measurement: 25.2 nmol/L and 28.9 nmol/L and 25.5 nmol/L and 29.9 nmol/L and 16.9 nmol/L
IGF-1 [2]; treated group B, individual piglets, beginning of the trial, before treatment, acetic acid
  IGF-1 level, 1st measurement: 3 nmol/L and 2.7 nmol/L and 6.1 nmol/L and 5.3 nmol/L and 5.7 nmol/L
IGF-1 [2]; treated group B, average of 5 piglets, after 21 days of treatment, control 23.6, non-treated X 17.2, acetic acid
  IGF-1 level, 2nd measurement, average: 25.3 nmol/L and 25.28 nmol/L
IGF-1 [2]; treated group B, average of 5 piglets, before treatment
  IGF-1 level, 1st measurement, average: 4.56 nmol/L
IGF-1 [2]; treatment for 14-21 days with 12.5 mg/kg/LW IAA
  effect on IGF-1 levels in poor-growing piglets: effectively restores IGF-1 levels
Growing laying hens; group GNA (normally growing hens, 10 mg/kg/LW IAA daily oral capsule), weekly weighing 1
  weight: 740
Growing laying hens; group GNA, untreated GB 407.5
  total weight gain: 482
Growing laying hens; group GNA, weekly weighing 2
  weight: 883
Growing laying hens; group GNA, weekly weighing 3
  weight: 996
Growing laying hens; group GNA, weekly weighing 4
  weight: 1095
Growing laying hens; group GNA, weekly weighing 5
  weight: 1222
Growing laying hens; group GNA, weighing 2 vs 1
  weight gain: 143
Growing laying hens; group GNA, weighing 3 vs 2
  weight gain: 113
Growing laying hens; group GNA, weighing 4 vs 3
  weight gain: 99
Growing laying hens; group GNA, weighing 5 vs 4
  weight gain: 127
Growing laying hens; group SNA (poorly growing hens, 10 mg/kg/LW IAA daily oral capsule), weekly weighing 1
  weight: 489.5
Growing laying hens; group SNA, untreated SB 408.5
  total weight gain: 505.5
Growing laying hens; group SNA, weekly weighing 2
  weight: 598
Growing laying hens; group SNA, weekly weighing 3
  weight: 718
Growing laying hens; group SNA, weekly weighing 4
  weight: 885
Growing laying hens; group SNA, weekly weighing 5
  weight: 995
Growing laying hens; group SNA, weighing 2 vs 1
  weight gain: 108.5
Growing laying hens; group SNA, weighing 3 vs 2
  weight gain: 120
Growing laying hens; group SNA, weighing 4 vs 3
  weight gain: 167
Growing laying hens; group SNA, weighing 5 vs 4
  weight gain: 110

Source: patent publication US10716778B2, “Use of compounds that are able to increase the serum IGF-1 level for the preparation of a therapeutical composition for treatment of various disease states associated with a reduced IGF-1 serum level in humans and animals” (VEIJLEN N.V., priority 2003, dated 2020)
